The values that follow come from patent US10786521B2, “Methods and compositions for treatment of COPD diseases” (Shanghai KE Pharmaceutical Co., LTD, priority 2014, dated 2020).

Assay [1] has as its system asthmatic airway constriction in acute asthma mouse model. The assay is described as follows: Airway resistance (Rrs, FlexiVent) in OVA-induced, methacholine-challenged asthma mice. It counts as in vivo, C57BL/6 mice. The procedure:
Asthma mice were established as reported previously. Briefly, six to eight-week-old female C57BL/6 mice were carried out by intraperitoneal injection of 100 μg ovalbumin and 4 mg Imject Alum (ThermoFisher Scientific) in total volume of 0.2 mL on days 0 and 14. These mice were then challenged with 1.5%-2% aerosolized ovalbumin for 1 h on days 24, 25 and 26. The efficacy of drugs was evaluated by measuring airway resistance in these mice 24 h after the last challenge.
(§1) The airway resistance was measured through an invasive method as described in previous reports. In brief, the mice were anesthetized with 240 mg/kg Avertin and the trachea was cannulated with an 18-gauge metal needle. Mechanical ventilation (FlexiVent; SCIREQ Inc., Montreal, Canada) was applied at a frequency of 150 breaths per minute, a tidal volume of 10 ml/kg, and positive end-expiratory pressure of 2.5 cm H2O. Prior to methacholine challenge, deep inflation was applied followed by administration of aerosolized PBS to obtain stabilization of airway resistance (Rrs, cmH2O·s/mL). The Rrs after PBS was considered to be the baseline. Then mice were challenged with sequential concentrations of methacholine with a dose of 2.0, 4.0, 8.0, 16, 32 and 64 mg/mL by an ultrasonic nebulizer until reaching bronchoconstrictive phase that was four to five folds greater than baseline. Three minutes after the last dose of methacholine inhalation, the reagents were delivered by the same ultrasonic nebulizer. The Rrs measurements were performed every 30 s throughout the experiments. The negative control for these studies was PBS, because all the solvents for reagents used here were PBS. As a positive control, albuterol (3 μg; Sigma), the most widely used β-agonist as an effective bronchodilator for asthma therapy, was used.
as §1, with “Acute asthma model mice were established as reported previously. Briefly, six to eight-week-old female C57BL/6 mice were carried out by intraperitoneal injection of 100 μg ovalbumin and 4 mg Imject Alum (ThermoFisher Scientific) in total volume of 0.2 mL on days 0 and 14. These mice were then challenged with 1.5%-2% aerosolized ovalbumin for 1 h on days 24, 25 and 26. The efficacy of drugs by measuring airway resistance in these mice 24 h was evaluated after the last challenge. The airway” for “The airway”

In assay [2] the test system is cytosolic calcium in primary airway smooth muscle cells. Put plainly: Calcium image (Fluo-4) of primary airway smooth muscle cells stimulated with acetylcholine. It counts as cell-based. To be noted: 10 μM compound, then 100 μM acetylcholine; around 16 to 18 minutes. The procedure: Primary airway smooth muscle cells were stimulated with 100 μM acetylcholine (ACh) (upper panels), resulting elevation and maintenance of calcium signals (arrow heads indicate typical alteration of the cells) for 8 minutes. After washing out ACh, new buffer containing 10 μM Kudinoside D was added, and then stimulated with 100 μM acetylcholine.
Calcium image (1-3): Ca^2+ signal was measured by recording 488 nm laser excited Fluo-4 fluorescence with a laser confocal microscope (FV-1000, Olympus). After 3 times washing with D-Hanks solution, primary cultured airway smooth muscle cells were loaded with 2.5 μM Fluo-4 AM and 0.02% pluronic acid (F127) in D-Hanks for 30 min at room temperature. Then washed 3 times with D-Hanks, incubated in H-T buffer at 37° C. for 40 min. Ca^2+ signal was measured by recording 488 nm laser excited Fluo-4 fluorescence with a laser confocal microscope (FV-1000, Olympus).

The subject of assay [3] is permeable (skinned) airway smooth muscle strips. The assay is described as follows: Ca2+-induced sustained contraction of alpha-toxin permeabilized bronchial ring at constant calcium. It counts as cell-based, C57BL/6J mice. As to conditions: pCa 4.5 elicited contraction. The procedure: To assess the requirement of calcium reduction for kudinoside-mediated relaxation, smooth muscle tissues permeable were made. Briefly, the fresh bronchial ring were separated by sharp dissection from C57BL/6J mice. Following incubation for 10 minutes in H-T buffer, the muscle strips were treated for 5 minutes in Ca^2+-free H-T buffer and for 5 minutes in buffer A (30 mmol/L TES, 0.5 mmol/L dithiothreitol, 50 mmol/L KCl, 5 mmol/L K2EGTA, 150 mmol/L sucrose, pH 7.4), and then were subsequently permeabilized in α-toxin (16,000 units/mL; Sigma) in buffer A for 40 minutes at room temperature.
Treatment with […] ionomycin (Sigma) in buffer A for 10 minutes was used to deplete Ca^2+ stores. Permeable tissues were washed in pCa 9.0 solution (20 mmol/L TES, 4 mmol/L K2EGTA, 5.83 mmol/L MgCl2, 7.56 mmol/L potassium propionate, 3.9 mmol/L Na2ATP, 0.5 mmol/L dithioerythritol, 16.2 mmol/L phosphocreatine, 15 U/mL creatine kinase, pH 6.9), followed by incubation in pCa 4.5 solution (20 mmol/L TES, 4 mmol/L CaEGTA, 5.66 mmol/L MgCl2, 7.53 mmol/L potassium propionate, 3.9 mmol/L Na2ATP, 0.5 mmol/L dithioerythritol, 16.2 mmol/L phosphocreatine, 15 U/mL creatine kinase, pH 6.9) to elicit a sustained Ca^2+-induced contraction. After wash out the solution, permeable muscle strips were then incubated with pCa 5.0 solution and relaxed by adding Kudinoside D dissolved in pCa 5.0 solution.

Each structure is given as a SMILES string.

For `C[C@@H]1O[C@@H](O[C@H]2[C@H](O[C@H]3CC[C@@]4(C)C(CC[C@]5(C)C4C=CC4=C6[C@]7(CC[C@](C)(OC7=O)[C@@]6(C)O)CC[C@]45C)C3(C)C)OC[C@H](O)[C@@H]2O[C@@H]2O[C@H](CO)[C@@H](O)[C@H](O)[C@H]2O)[C@H](O)[C@H](O)[C@H]1O` (stereo partly shown) [Kudinoside D], the “reduction of airway resistance, 0.03 μg” value in assay [1] (0.03 μg inhaled) was “slight reduction”. Moreover, the “airway resistance reduced to, at 1 minute after inhalation, 0.03 μg” value in assay [1] (0.03 μg inhaled, 1 minute) is 69.65±5.87%. Besides, in assay [1] (0.3 μg inhaled), the “reduction of airway resistance, 0.3 μg” value is listed as “significant reduction of airway resistance”. Moreover, in assay [1] (0.3 μg inhaled, 1 minute), the “airway resistance reduced to, at 1 minute after inhalation, 0.3 μg” value was 67.79±6.77%. In addition, the “reduction of airway resistance at 3 minutes after inhalation compared with 3 μg albuterol, 0.3 μg” value in assay [1] (0.3 μg inhaled, 3 minutes) is given as “more reduction of airway resistance than that of 3 μg of albuterol”. For the same molecule, the “reduction of airway resistance, 3 μg” value in assay [1] (3 μg inhaled) was “significant reduction of airway resistance”. In assay [1] (3 μg inhaled, 1 minute), the “airway resistance reduced to, at 1 minute after inhalation, 3 μg” value is 45.81±6.87%. In assay [1] (3 μg inhaled, 3 minutes), the “reduction of airway resistance at 3 minutes after inhalation compared with 3 μg albuterol, 3 μg” value is “more reduction of airway resistance than that of 3 μg of albuterol”. Moreover, the “cytosolic calcium signal after acetylcholine stimulation” value in assay [2] was “significant reduction of calcium”. Further, the “relaxation of sustained Ca2+-induced contraction of skinned muscle strip” value in assay [3] was “could not relax this sustained contraction, and contrarily slightly enhanced it”.
